Measurements reported in patent US10555919B2, “Melatonin in autoimmune disease” (The Brigham and Women's Hopsital, Inc., priority 2014, dated 2020).
Entries after “also recorded” stand apart in the source; their conditions may differ.

Legend:
[1] = tested on: human CD4+ T cells activated under Th17 polarizing conditions; test: In vitro human Th17 differentiation; type: cell-based; conditions: 500 ng/ml
Description: In vitro human T cell differentiation. For Th17 differentiation, naive CD45RA+ CD4+ T cells were isolated from PBMCs with magnetic beads (Naive Human CD4+ T Cell Isolation Kit II, Miltenyi Biotec) and seeded at a density of 5×10^5 cells/ml in 24-well plates coated with anti-CD3 and (2 μg/ml) and soluble anti-CD28 and cultured in the presence of the following cytokines IL-1β (25 ng/ml), IL-6 (50 ng/ml), and TGF-β1 (2 ng/ml) and neutralizing antibodies to IFN-g ([…]) and IL-4 (10 microgram/ml). Alternatively, Th17 cells were differentiated by using IL-1β (25 ng/ml), IL-6 (50 ng/ml), and IL-23 (50 ng/ml) and neutralizing antibodies to IFN-g ([…]) and IL-4 (10 microgram/ml). For Th1 differentiation naïve CD4+T cells are cultured in the presence of IL-12 (20 ng/ml) and anti-IL-4 (10 μg/ml).
(§1) Secreted cytokines were measured in tissue culture supernatants after 72-96 hs by enzyme-linked immunosorbent assay as previously described (Farez et al., 2009).

[2] = tested on: Splenocytes; test: Recall response to MOG35-55 of splenocytes from melatonin-treated mice; type: in vivo
Description: Secreted cytokines were measured in tissue culture supernatants after 72-96 hs by enzyme-linked immunosorbent assay as previously described (Farez et al., 2009). […] The cells were pulsed with [3H]thymidine (1 μCi/well) for the final 24 h. The frequency of T cells producing IL-17 (eBioscience), IFN-γ (BioLegend) or IL-10 (BD Pharmingen) and Foxp3+ T cells (eBioscience) was assessed by flow cytometry. For CFSE-based proliferation assay, CD4+ T cells were labeled with 1 μM CFSE (carboxyfluorescein diacetate succinimidyl ester; Molecular Probes). Data were acquired on an […] (BD Biosciences) or MacsQuants (Miltenyi) and analyzed with FlowJo software (TreeStar). To further characterize the effects of melatonin on the encephalitogenic T-cell response, we analyzed the recall response to MOG35-55. […] Thus, melatonin arrests the encephalitogenic Th17 cell response.

[3] = tested on: CD4+ T cells; test: Co-incubation of sorted CD4+ T cells with treatment-switched dendritic cells; type: in vivo; conditions: CD4+ T cells from melatonin-treated mice co-incubated with splenic DCs from control mice
Description: To investigate if melatonin acts directly on T cells or whether it controls the T-cell response indirectly through its effects on antigen presenting cells, we co-incubated sorted CD4^+ T cells from melatonin-treated or control mice with treatment-switched dendritic cells (DCs).

[4] = tested on: murine Th17 cell differentiation; test: In vitro mouse Th17 cell differentiation; type: cell-based; conditions: melatonin 2 ng/ml
Description: For intracellular cytokine staining, cells were stimulated for 4 h at 37° C. with phorbol 12-myristate 13-acetate (50 ng/ml; Sigma), ionomycin (1 μg/ml; Sigma) and monensin (GolgiStop; 1 μg/ml; BD Biosciences). After being stained for surface markers, cells were fixed and made permeable according to the manufacturer's instructions (BD Biosciences). All antibodies against cytokines were from Biolegend. All experiments were started at the same time (8-9 am). Data were collected with a LSR II or FACSAria (BD Biosciences), then were analyzed with FlowJo software (Treestar).
Naive CD4+ T cells (CD4+CD44loCD62LhiCD25−) were from the spleen and lymph node of C57BL/6 wild-type, MTNR1A−, NFIL3−, REV-ERBα, C/EBPα-deficient or RORα-deficient mice using magnetic beads (CD4+ T cell isolation kit, Miltenyi Biotec). All experiments were started between 7 and 9 am. Cells were activated with plate-bound anti-CD3 (2 μg/ml; 14-0031-86; eBioscience) and anti-CD28 (2 μg/ml; 16-0281-86; eBioscience). Mouse IL-27 (30 ng/ml; 34-8271; Biolegend) was added for the generation of Tr1 cells. IL-6 (30 ng/ml; 406-ML-025; R&D Systems), TGF-β1 (15 ng/ml; 130-095-067; Miltenyi Biotec), anti-IL-4 (2.5 μg/ml; C17.8; Biolegend) and anti-IFN-γ (5 μg/ml; XMG1.2; Biolegend) were added for the generation of Th17 cells. Recombinant mouse IL-23 (30 ng/ml; 1887-ML-010; R&D Systems) was added at day 2. For some experiments IL-6 and […] (10 ng/ml; 401-ML-025; R&D Systems) or TGF-β1 and IL-21 (100 ng/ml; 594-ML-010; R&D Systems) were used in instead for Th17 cell differentiation. IL-12 (30 ng/ml; 419-ML-010; R&D Systems) and anti-IL-4 (2.5 μg/ml; C17.8; Biolegend) were used for the generation of Th1 cells. IL-4 (30 ng/ml; 404-ML-010; R&D Systems) and anti-IFN-γ (5 μg/ml; XMG1.2; Biolegend) was added for the generation of Th2 cells. TGF-β1 (15 ng/ml; 130-095-067; Miltenyi Biotec) was used for the generation of Foxp3+ Tregs. Melatonin (Gador, Argentina), Agomelatin, and CGP-52608 (Sigma-Aldrich) were added at the start of the cultures and at day 2, at a final concentration of 2-20 ng/ml.
as §1

[5] = tested on: ROR-α; test: Chromatin immunoprecipitation with anti-ROR-α at the il10 promoter; type: cell-based, mouse; conditions: T-cell activation under Tr1 polarizing conditions in the presence of melatonin
Description: DNA-protein complexes in cells were crosslinked with 4% paraformaldehyde and lysed with 0.35 ml lysis buffer (1% SDS, 10 mM EDTA and 50 mM Tris-HCl, pH 8.1) containing 1×protease inhibitor ‘cocktail’ (Roche Molecular Biochemicals). Chromatin was sheared by sonication and supernatants collected after centrifugation were diluted in buffer (1% Triton X-100, 2 mM EDTA, 150 mM NaCl and 20 mM Tris-HCl, pH 8.1). 5 μg antibody was prebound for a minimum of 6 hs to protein A and protein G Dynal magnetic beads (Invitrogen) and samples were washed three times with ice-cold PBS containing 5% BSA, and then were added to the diluted chromatin, followed by immunoprecipitation overnight. The magnetic bead-chromatin complexes were then washed three times in radioimmunoprecipitation buffer (50 mM HEPES, pH 7.6, 1 mM EDTA, 0.7% Na deoxycholate, 1% NP-40 and 0.5 M LiCl), followed by two washes with Tris-EDTA buffer. Immunoprecipitated chromatin was then extracted with a solution of 1% SDS and 0.1 MNaHCO3 and was heated at 65° C. for at least 6 h for reversal of the paraformaldehyde cross-linking. DNA fragments were purified with a QIAquick DNA purification Kit (Qiagen) and were analyzed by SYBR Green real-time PCR (Takara Bio).

[6] = during Th17 cell differentiation, 3 days

For `COc1ccc2[nH]cc(CCNC(C)=O)c2c1` [Melatonin, N-Acetyl-5-methoxytryptamine], the “production of IL-17, RORC and IL17A expression” value [1] was “reduced”, the IL10 expression ([1]; Th17 polarizing conditions) was “increased” and the “proliferative response to MOG35-55” value [2] was “diminished”. The IFN-γ production ([2]; recall to MOG35-55) was “no significant effects”, the IL-10 production ([2]; recall to MOG35-55) was “increased” and the IL-17 production ([2]; recall to MOG35-55) was “reduced”. For the same compound, the IL-10 production [3] was “increased”, the “proliferation and IL-17 secretion” value [3] was “decreased” and the “differentiation of MTNR1A-deficient (MTNR1A KO) Th17 cells” value ([4]; MTNR1A KO) was “failed to suppress; also recorded: boosted”. For the same compound, the “expression of both ROR-α and ROR-γt” value ([4]; Th17 polarizing conditions) was “reduced”, the “expression of IL-10” value ([4]; Th17 polarizing conditions, 72 hs) was “increased” and the “expression of the ROR-γt repressor NFIL3” value [4, 6] was “increase”. For the same compound, the nr1d1 expression [4, 6] was “suppressed”, the “differentiation of Th17 cells (rorc, IL-17, IL-23 receptor)” value ([4]; wild type, agomelatine 20 ng/ml, ramelteon 10 ng/ml, CGP 52608 20 ng/ml) was “interfered” and the “binding of ROR-α to the il10 promoter” value [5] was “increased”.
